Test results taken from PubChem BioAssay (NCI).
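GI50: concentration for 50% inhibition of growth. Definition used: TGI = concentration required for complete inhibition of growth.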

Experiments:
Experiment in all cases: inhibition of tumour cell growth, NCI panel, 384-well format
[1] = tested on: BT-549 breast
[2] = tested on: SF-268 CNS
[3] = tested on: RPMI-8226 leukemia
[4] = tested on: IGROV1 ovarian
[5] = tested on: SF-539 CNS
[6] = tested on: OVCAR-5 ovarian
[7] = tested on: DU-145 prostate
[8] = tested on: SN12C renal
[9] = tested on: A549 NSCLC
[10] = tested on: CCRF-CEM leukemia
[11] = tested on: T-47D breast
[12] = tested on: TK-10 renal
[13] = tested on: SNB-75 CNS
[14] = tested on: SNB-19 CNS
[15] = tested on: MALME-3M melanoma
[16] = tested on: MDA-MB-231 breast
[17] = tested on: NCI-H226 lung
[18] = tested on: NCI/ADR-RES ovarian
[19] = tested on: OVCAR-4 ovarian
[20] = tested on: CAKI-1 renal
[21] = tested on: UO-31 renal
[22] = tested on: SK-MEL-28 melanoma
[23] = tested on: HT29 colon
[24] = tested on: SW-620 colon
[25] = tested on: OVCAR-3 ovarian
[26] = tested on: U251 glioblastoma
[27] = tested on: UACC-62 melanoma
[28] = tested on: M14 melanoma
[29] = tested on: SR leukemia
[30] = tested on: KM12 colon
[31] = tested on: SK-MEL-2 melanoma
[32] = tested on: SF-295 CNS
[33] = tested on: ACHN renal
[34] = tested on: PC-3 prostate
[35] = tested on: HCT-15 colon
[36] = tested on: NCI-H23 lung
[37] = tested on: HCC-2998 colon
[38] = tested on: HL-60(TB) leukemia
[39] = tested on: HOP-62 NSCLC
[40] = tested on: EKVX NSCLC
[41] = tested on: HOP-92 NSCLC
[42] = tested on: LOX IMVI melanoma
[43] = tested on: NCI-H460 NSCLC
[44] = tested on: NCI-H322M lung
[45] = tested on: UACC-257 melanoma
[46] = tested on: K-562 leukemia
[47] = tested on: MDA-MB-468 breast
[48] = tested on: NCI-H522 lung
[49] = tested on: HCT-116 colon
[50] = tested on: A498 renal
[51] = tested on: COLO 205 colon
[52] = tested on: 786-0 renal
[53] = tested on: MCF7 breast
[54] = tested on: HS 578T breast
[55] = tested on: SK-OV-3 ovarian
[56] = tested on: SK-MEL-5 melanoma
[57] = tested on: RXF 393 renal
[58] = tested on: MDA-MB-435 melanoma
[59] = tested on: MOLT-4 leukemia

CCCCc1nc2cc(/C=C/C(=O)NO)ccc2n1CCN(CC)CC
GI50 [1]: 230 nM | TGI [1]: 1160 nM | GI50 [2]: 174 nM | TGI [2]: 602 nM | GI50 [3]: < 10 nM | TGI [3]: 17 nM | GI50 [4]: 119 nM | TGI [4]: 539 nM | GI50 [5]: 415 nM | TGI [5]: 2480 nM | GI50 [6]: 119 nM | TGI [6]: 484 nM | GI50 [7]: 120 nM | TGI [7]: 375 nM | GI50 [8]: 286 nM | TGI [8]: 1290 nM | GI50 [9]: 321 nM | TGI [9]: 1270 nM | GI50 [10]: 62.3 nM | TGI [10]: 206 nM | GI50 [11]: 136 nM | TGI [11]: 310 nM | GI50 [12]: 258 nM | TGI [12]: 948 nM | GI50 [13]: 119 nM | TGI [13]: 1630 nM | GI50 [14]: 511 nM | TGI [14]: 1980 nM | GI50 [15]: 130 nM | TGI [15]: 402 nM | GI50 [16]: 187 nM | TGI [16]: 613 nM | GI50 [17]: 697 nM | TGI [17]: 2100 nM | GI50 [18]: 489 nM | TGI [18]: 2330 nM | GI50 [19]: 392 nM | TGI [19]: 1950 nM | GI50 [20]: 206 nM | TGI [20]: 709 nM | GI50 [21]: 82.9 nM | TGI [21]: 1520 nM | GI50 [22]: 179 nM | TGI [22]: 465 nM | GI50 [23]: 203 nM | TGI [23]: 809 nM | GI50 [24]: 166 nM | TGI [24]: 334 nM | GI50 [25]: 181 nM | TGI [25]: 974 nM | GI50 [26]: 174 nM | TGI [26]: 503 nM | GI50 [27]: 83.4 nM | TGI [27]: 235 nM | GI50 [28]: 358 nM | TGI [28]: 1710 nM | GI50 [29]: < 10 nM | TGI [29]: 107 nM | GI50 [30]: 280 nM | TGI [30]: 1420 nM | GI50 [31]: 169 nM | TGI [31]: 339 nM | GI50 [32]: 186 nM | TGI [32]: 397 nM | GI50 [33]: 221 nM | TGI [33]: 955 nM | GI50 [34]: 185 nM | TGI [34]: 689 nM | GI50 [35]: 483 nM | TGI [35]: 2110 nM | GI50 [36]: 296 nM | TGI [36]: 1440 nM | GI50 [37]: 106 nM | TGI [37]: 414 nM | GI50 [38]: 144 nM | TGI [38]: 280 nM | GI50 [39]: 250 nM | TGI [39]: 1640 nM | GI50 [40]: 649 nM | TGI [40]: 4.32 µM | GI50 [41]: 176 nM | TGI [41]: 518 nM | GI50 [42]: 203 nM | TGI [42]: 588 nM | GI50 [43]: 235 nM | TGI [43]: 1320 nM | GI50 [44]: 206 nM | TGI [44]: 1140 nM | GI50 [45]: 178 nM | TGI [45]: 561 nM | GI50 [46]: 17.5 nM | TGI [46]: 205 nM | GI50 [47]: 134 nM | TGI [47]: 356 nM | GI50 [48]: 34.3 nM | TGI [48]: 247 nM | GI50 [49]: 125 nM | TGI [49]: 377 nM | GI50 [50]: 298 nM | TGI [50]: 1070 nM | GI50 [51]: 178 nM | TGI [51]: 419 nM | GI50 [52]: 317 nM | TGI [52]: 2000 nM | GI50 [53]: 185 nM | TGI [53]: 1130 nM | GI50 [54]: 125 nM | TGI [54]: 317 nM | GI50 [55]: 239 nM | TGI [55]: 911 nM | GI50 [56]: 129 nM | TGI [56]: 290 nM | GI50 [57]: < 10 nM | TGI [57]: 237 nM | GI50 [58]: 226 nM | TGI [58]: 616 nM | GI50 [59]: 30.9 nM | TGI [59]: 197 nM
